Assay results published in ChEMBL document CHEMBL5104189, “Piptide Chemotypes for Perturbation of the Interaction of Urokinase with Its Receptor” (J Med Chem, 2022).
Active and inactive are the calls of the source. The calls are words filed in the database; no cut-off is given here.

Tests used:
[1] = target: T1, Urokinase-type plasminogen activator/surface receptor (Homo sapiens, UniProt P00749+Q03405); experiment: Inhibition of uPAR/uPA (unknown origin) interaction assessed as dissociation constant by fluorescence polarization (FP) assay; format: protein assay
[2] = target: T1, Urokinase-type plasminogen activator/surface receptor; experiment: Inhibition of uPAR/uPA (unknown origin) interaction by ELISA; format: protein assay
MDA-MB-231 [3] = experiment: Antimigratory activity in human MDA-MB-231 cells assessed as scratch closure speed at 5 to 50 uM by scratch wound healing assay; format: functional, cell-based; settings: dose 5-50 µM
MDA-MB-231 [4] = experiment: Anti-invasive activity in human MDA-MB-231 cells assessed as relative invasion at 5 to 50 uM by scratch wound healing assay; format: functional, cell-based; settings: dose 5-50 µM
MDA-MB-231 [5] = experiment: Antimigratory activity in human MDA-MB-231 cells assessed as relative migration at 5 to 50 uM by scratch wound healing assay; format: functional, cell-based; settings: dose 5-50 µM

Row | Structure (SMILES) | Ki [1] [µM] | IC50 [2] [µM] | Activity (MDA-MB-231 [3]) | Activity (MDA-MB-231 [4]) | Activity (MDA-MB-231 [5])
1 | Cc1ccc(N2C(=O)C(O)=C(C(=O)c3ccc(Cl)cc3)C2c2cccc(F)c2)cc1Br (centres undefined) | 0.7 | 18.4 | – | – | –
2 | NC(=O)C[C@H](C(=O)N1CCN([C@H](CO)C(N)=O)CC1)N1CCN(C(=O)[C@H](N)Cc2ccccc2)CC1 | 13.2 | 14.7 | – | – | –
3 | Cc1cccc2c(C(=O)N3CCN(c4c(C)n(C)c(=O)n(C)c4=O)CC3)cc(-c3ccccc3)nc12 | 2.5 | 15.5 | – | – | –
4 | CC[C@H](C)[C@@H](C(N)=O)n1cc([C@@H](CO)NC(=O)N2CCN([C@@H](CO)C(=O)N3CCN([C@@H](CCCCN)C(=O)O)CC3)CC2)nn1 | 2.56 | 2.85 | – | – | –
5 | NCCCC[C@H](C(=O)N1CCN([C@H](Cc2ccccc2)C(N)=O)CC1)N1CCN(C(=O)[C@H](N)CO)CC1 | 2.75 | 3.06 | Active | Active | –
6 | CC[C@H](C)[C@@H](C(N)=O)n1cc([C@@H](CO)N2C(=O)N[C@@H](Cc3ccccc3)C2=O)nn1 | 7.5 | 8.35 | – | – | –
7 | NCCCC[C@H](C(=O)N1CCN([C@@H](Cc2ccccc2)C(N)=O)CC1)N1CCN(C(=O)[C@H](N)CO)CC1 | 6.2 | 3.06 | – | – | –
8 | NCCCC[C@H](C(=O)N1CCN([C@@H](CO)C(N)=O)CC1)n1cc([C@@H](Cc2ccccc2)N2C(=O)N[C@@H](CO)C2=O)nn1 | 2.2 | 2.45 | – | – | Active
